A short description of experiment [1]: Inhibition of wild type ATG12-ATG3 protein protein interaction (unknown origin) expressed in HEK293T cells preincubated for ATG12 for 1 hr followed by ATG3 addition by luminescence based microplate analysis. In kind it is cell-based, Homo sapiens.
In experiment [2] the target is Casein kinase II subunit alpha' (Homo sapiens) (UniProt P19784). As to the kind of experiment: Inhibition of […] (unknown origin) assessed as residual activity relative to control. Also on record: concentration or dose not given beside the values.
Chain of Casein kinase II subunit alpha' (Homo sapiens) (P19784 whole entry, looked up): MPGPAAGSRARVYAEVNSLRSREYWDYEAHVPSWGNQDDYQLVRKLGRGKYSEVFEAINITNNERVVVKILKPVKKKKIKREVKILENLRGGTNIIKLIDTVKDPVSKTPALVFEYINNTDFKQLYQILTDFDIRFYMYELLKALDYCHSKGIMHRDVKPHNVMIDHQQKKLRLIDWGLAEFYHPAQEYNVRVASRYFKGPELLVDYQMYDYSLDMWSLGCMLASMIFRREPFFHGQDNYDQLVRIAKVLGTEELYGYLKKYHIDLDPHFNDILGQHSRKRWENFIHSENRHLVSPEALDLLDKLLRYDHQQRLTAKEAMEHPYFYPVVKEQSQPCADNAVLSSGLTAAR

Each structure is given as a SMILES string. Active and inactive are the calls of the source. The rule behind the calls is not given here. A value given as a limit tells only on which side of the number the result lay.

The IC50 is the midpoint of a concentration-inhibition curve. `O=C(O)c1ccc2c(c1)N=C(Nc1cccc(Cl)c1)N1CCN=C21` came in with an IC50 in experiment [1] of 60 µM. For the same molecule, in experiment [2], the Activity is 128%.

The molecule `Cc1scc2c1c(Nc1cccc(Cl)c1)nc1cc(C(=O)O)ccc12` returned an IC50 in experiment [1] of 14 µM. The Activity in experiment [2] amounted to 33%.

For the molecule `Cc1nsc2c1c(Nc1cccc(Cl)c1)nc1cc(C(=O)O)ccc12`, in experiment [1], the IC50 stood at 11 µM. In addition, the Activity in experiment [2] was -1%.

On to `Cc1cn2c(NC34CC5CC(CC(C5)C3)C4)nc3cc(C(=O)O)ccc3c2n1`, for which, in experiment [1], the IC50 worked out at 25 µM. Also, the Activity in experiment [2] is 83%.

As to `Clc1cccc(Nc2nc3cc(-c4nnn[nH]4)ccc3c3ncccc23)c1`, it took 64 µM to reach half-maximal inhibition in experiment [1] (IC50). In addition, the Activity in experiment [2] turned out to be 53%.

In experiment [1], `O=C(O)c1ccc2c(Cc3ccccc3)nc(Nc3cccc(Cl)c3)nc2c1` yielded an IC50 of more than 99 µM. Moreover, the Activity in experiment [2] was found to be 96%.

With `O=C(O)c1ccc2c(c1)nc(Nc1cccc(Cl)c1)n1ccnc21`, the IC50 in experiment [1] was found to be 14 µM. Also, in experiment [2], the Activity amounted to 31%.

Consider `O=C(O)c1ccc2c(c1)nc(Nc1cccc(Cl)c1)c1cnccc12`, for which it took 10 µM to reach half-maximal inhibition in experiment [1] (IC50). Besides, the Activity in experiment [2] was 28%.

`O=C(O)c1ccc2c(c1)nc(Nc1cccc(Cl)c1)c1ccsc12` showed an IC50 in experiment [1] of 14 µM. The Activity in experiment [2] was -1%.

In turn, `O=C(O)c1ccc2c(Cc3ccccc3)cc(Nc3cccc(Cl)c3)nc2c1` returned an IC50 in experiment [1] of more than 99 µM. The Activity in experiment [2] is 101%.

For `Cc1cn2c(N(C)c3cccc(Cl)c3)nc3cc(C(=O)O)ccc3c2n1`, the IC50 in experiment [1] was more than 99 µM. In experiment [2], the Activity worked out at 75%.

For `O=C(O)c1ccc2c(c1)nc(Nc1cccc(Cl)c1)c1cccnc12`, half-maximal inhibition in experiment [1] (IC50) required 6 µM. The Activity in experiment [2] worked out at 13%.

In experiment [1], `Cc1cn2c(Nc3ccnc(Cl)c3)nc3cc(C(=O)O)ccc3c2n1` showed an IC50 of 71 µM. Further, the Activity in experiment [2] was found to be 73%.

Molecule `O=C(O)c1ccc2c(c1)nc(Oc1cccc(Cl)c1)c1ccncc12` had an IC50 in experiment [1] of 51 µM. Besides, the Activity in experiment [2] was determined as 4%.

The molecule `Cc1cn2c(Nc3cccc(Cl)c3)nc3cc(C(=O)O)ccc3c2n1` returned an IC50 in experiment [1] of 8 µM. Moreover, the Activity in experiment [2] is 26%.

`O=C(O)c1ccc2c(c1)nc(Nc1cccc(Cl)c1)c1ncsc12` displayed an IC50 in experiment [1] of 16 µM. Also, the Activity in experiment [2] is 1%.

Molecule `O=C(O)c1ccc2cnc(Nc3cccc(Cl)c3)nc2c1` gave an IC50 in experiment [1] of 62 µM. In experiment [2], the Activity is -4%.

As for `Cc1cn2c(NC3CCCCC3)nc3cc(C(=O)O)ccc3c2n1`, the IC50 in experiment [1] is more than 99 µM. Further, the Activity in experiment [2] worked out at 72%.

In turn, `CCc1cn2c(Nc3cccc(Cl)c3)nc3cc(C(=O)O)ccc3c2n1` yielded an IC50 in experiment [1] of 24 µM. Also, the Activity in experiment [2] was determined as 20%.

In experiment [1], `O=C(O)c1ccc2c(c1)nc(Nc1cccc(Cl)c1)c1ccccc12` gave an IC50 of 45 µM. In addition, in experiment [2], the Activity was determined as 36%.

`CC1=CN2C(Nc3cccc(Cl)c3)=Nc3cc(-c4noc(=O)[nH]4)ccc3C2N1` (centres undefined) showed an IC50 in experiment [1] of 92 µM. Moreover, in experiment [2], the Activity stood at 105%.

For `COc1nc(Nc2cccc(Cl)c2)nc2cc(C(=O)O)ccc12`, in experiment [1], the IC50 turned out to be 91 µM. The Activity in experiment [2] was 50%.

In experiment [1], `O=C(O)c1ccc2ccc(Nc3cccc(Cl)c3)nc2c1` yielded an IC50 of 50 µM. Further, in experiment [2], the Activity was determined as 20%.

The molecule `Cn1ncc2c3ccc(C(=O)O)cc3nc(Nc3cccc(Cl)c3)c21` came in with an IC50 in experiment [1] of 19 µM. For the same molecule, the Activity in experiment [2] amounted to 1%.

Regarding `O=c1[nH]nc(-c2ccc3c(c2)nc(Nc2cccc(Cl)c2)c2cccnc23)o1`, in experiment [1], half-maximal inhibition (IC50) was put at 72 µM. Also, the Activity in experiment [2] is 52%.

In turn, `CC(=O)Oc1ccc(COC(=O)c2ccc3c(c2)nc(Nc2cccc(Cl)c2)c2cccnc23)cc1` yielded an IC50 in experiment [1] of 53 µM. The outcome in experiment [2] was inactive.

`Cc1cn2c(Nc3cccc(C(C)(C)C)c3)nc3cc(C(=O)O)ccc3c2n1` gave an IC50 in experiment [1] of 24 µM. Besides, in experiment [2], the Activity amounted to 102%.

As to `Cn1cnc2c3ccc(C(=O)O)cc3nc(Nc3cccc(Cl)c3)c21`, it took 62 µM to reach half-maximal inhibition in experiment [1] (IC50). For the same molecule, the Activity in experiment [2] stood at 55%.

`Cc1cnc2c3ccc(C(=O)O)cc3nc(Nc3cccc(Cl)c3)n12` showed an IC50 in experiment [1] of 24 µM. Further, the Activity in experiment [2] amounted to 29%.

In experiment [1], `Cc1cn2c(Nc3cccc(I)c3)nc3cc(C(=O)O)ccc3c2n1` came in with a half-inhibitory concentration (IC50) of 10 µM. The Activity in experiment [2] was found to be 11%.

With `Cc1cn2c(Nc3ccc(Cl)cc3)nc3cc(C(=O)O)ccc3c2n1`, the IC50 in experiment [1] was more than 99 µM. Also, in experiment [2], the Activity amounted to 76%.

Molecule `CC1=CN2C(Nc3cccc(Cl)c3)=Nc3cc(C(N)=O)ccc3C2N1` (centres undefined) gave an IC50 in experiment [1] of more than 99 µM. In experiment [2], the Activity is 109%.

As for `O=C(O)c1ccc2c(c1)nc(Nc1cccc(Cl)c1)n1cc(Cc3ccccc3)nc21`, inhibition in experiment [1] was half-maximal at 14 µM (IC50). In addition, the Activity in experiment [2] is 81%.

In experiment [1], `O=C(O)c1ccc2c(c1)N=C(Nc1cccc(Cl)c1)N1CCCN=C21` came in with an IC50 of more than 99 µM. For the same molecule, the Activity in experiment [2] came out at 87%.

In turn, `Cc1cn2c(NC(C)(C)C)nc3cc(C(=O)O)ccc3c2n1` came in with an IC50 in experiment [1] of more than 99 µM. Further, the Activity in experiment [2] was found to be 104%.

Take `CC(C)c1cn2c(Nc3cccc(Cl)c3)nc3cc(C(=O)O)ccc3c2n1`: in experiment [1], the IC50 was determined as 30 µM. In experiment [2], the Activity was determined as 105%.

Turning to `O=C(O)c1ccc2c(c1)nc(Nc1cccc(Cl)c1)n1cc(-c3ccccc3)nc21`, the IC50 in experiment [1] was 9 µM. Besides, in experiment [2], the Activity came out at 114%.

For `Cc1cn2c(Nc3cccc(F)c3)nc3cc(C(=O)O)ccc3c2n1`, in experiment [1], the IC50 is 90 µM. Besides, the Activity in experiment [2] stood at 35%.

Take `Cc1cn2c(Nc3cccc(Cl)c3)nc3cc(P(=O)(O)O)ccc3c2n1`: the IC50 in experiment [1] is more than 99 µM. Further, the Activity in experiment [2] was 95%.

For `Cc1cn2c(Nc3cccc(C#N)c3)nc3cc(C(=O)O)ccc3c2n1`, half-maximal inhibition in experiment [1] (IC50) was put at 8 µM. Further, the Activity in experiment [2] was 38%.

`Cn1ncc2c(Nc3cccc(Cl)c3)nc3cc(C(=O)O)ccc3c21` returned an IC50 in experiment [1] of 42 µM. For the same molecule, the Activity in experiment [2] worked out at 35%.

`Cc1cn2c(Nc3cccc(OC(F)(F)F)c3)nc3cc(C(=O)O)ccc3c2n1`: in experiment [1], it took 37 µM to reach half-maximal inhibition (IC50). Also, the Activity in experiment [2] is 42%.

The molecule `N/C(=N\O)c1ccc2c(c1)nc(Nc1cccc(Cl)c1)c1cccnc12` came in with an IC50 in experiment [1] of more than 99 µM. Further, the outcome in experiment [2] was inactive.

In experiment [1], `CC1=CN2C(Nc3cccc(Cl)c3)=Nc3cc(-c4nnn[nH]4)ccc3C2N1` (centres undefined) displayed an IC50 of 73 µM. In experiment [2], the Activity was determined as 80%.

The molecule `O=C(O)c1ccc2c(c1)nc(Nc1cccc(Cl)c1)c1ccncc12` [SILMITASERTIB] had a half-inhibitory concentration (IC50) in experiment [1] of 27 µM. In experiment [2], the Activity is 2%.

The molecule `Cc1cn2c(Nc3cccc(C(C)C)c3)nc3cc(C(=O)O)ccc3c2n1` had an IC50 in experiment [1] of 41 µM. The Activity in experiment [2] stood at 31%.

`Cc1cn2c(Nc3cccc(C(F)(F)F)c3)nc3cc(C(=O)O)ccc3c2n1`: the IC50 in experiment [1] worked out at 30 µM. For the same molecule, the Activity in experiment [2] was 48%.

(Values after ChEMBL document CHEMBL6092140, “Structure-activity relationship study of small-molecule inhibitor of Atg12-Atg3 protein-protein interaction” (Bioorg Med Chem Lett, 2024).)
